Literature values in US20060088617A1, “Chocolate composition and method for benefiting the cardiovascular system” (priority 2004, published 2006).

Tested on: blood vessel function
Details: after consumption of flavonoid-rich dark chocolate

SMILES: Oc1cc(O)c2c(c1)O[C@H](c1ccc(O)c(O)c1)[C@H](O)C2 [epicatechin]
- absorption of epicatechin in the blood: absorbed at high levels in the blood
